Measurements taken from patent publication US9440982B2 (Eolas Therapeutics, Inc., priority 2012, dated 2016).

Target: T1, OX1 (Homo sapiens, UniProt O43613)
T1 construct: expressed in transfected cells; host or cells: CHO (CHO-OX1, kept under selection antibiotic)
T1 sequence (O43613 1-425): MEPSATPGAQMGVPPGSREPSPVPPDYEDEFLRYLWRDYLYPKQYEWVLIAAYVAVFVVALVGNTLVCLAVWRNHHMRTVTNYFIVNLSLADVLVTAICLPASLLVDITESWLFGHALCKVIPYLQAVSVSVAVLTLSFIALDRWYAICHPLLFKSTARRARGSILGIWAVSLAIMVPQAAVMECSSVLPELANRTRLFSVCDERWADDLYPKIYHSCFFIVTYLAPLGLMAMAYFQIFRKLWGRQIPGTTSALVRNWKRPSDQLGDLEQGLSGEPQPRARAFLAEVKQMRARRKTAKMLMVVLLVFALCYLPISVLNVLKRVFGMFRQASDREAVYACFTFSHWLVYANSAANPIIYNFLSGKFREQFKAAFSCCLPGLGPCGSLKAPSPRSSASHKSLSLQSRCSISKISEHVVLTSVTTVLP
Experiment: Orexin receptor cell-based functional assay, [Ca2+]i by FLIPR, CHO-OX1 cells
Conditions: CHO-OX1 cells, [Ca2+]i by FLIPR, antagonist dose-range 0.1 nM-10 μM, EC90 of OXA; read-out: OX1
Summary of the method: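 CHO cells expressing human OX1 or OX2 loaded with calcium dye plus 2.5 mM probenecid at 37° C (calcium4, 30 min, or calcium6, 2 h), then exposed to compounds (0.1 nM-10 μM) for 30 min. Intracellular Ca2+ measured on FLIPR; antagonist format.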

IC50 | SMILES
61 nM | Cc1ccc(-c2cnn(C)c2)c(C(=O)N2CCC[C@@H](C)[C@H]2CNc2nc3ccccc3o2)c1 [Example A2, ((2S,3R)-2-((Benzo[d]oxazol-2-ylamino)methyl)-3-methylpiperidin-1-yl)(5-methyl-2-(1-methyl-1H-pyrazol-4-yl)phenyl)methanone]
6 nM | Cc1ccc(-c2cn[nH]c2)c(C(=O)N2CCC[C@@H](C)[C@H]2CNc2ccc(C(F)(F)F)cn2)c1 [Example A3, ((2S,3R)-3-Methyl-2-(((5-(trifluoromethyl)pyridin-2-yl)amino)methyl)piperidin-1-yl)(5-methyl-2-(1H-pyrazol-4-yl)phenyl)methanone]
6 nM | Cc1cncc(-c2ccc(C)cc2C(=O)N2CCC[C@@H](C)[C@H]2CNc2ccc(C(F)(F)F)cn2)c1 [Example A5, ((2S,3R)-3-Methyl-2-(((5-(trifluoromethyl)pyridin-2-yl)amino)methyl)piperidin-1-yl)(5-methyl-2-(5-methylpyridin-3-yl)phenyl)methanone]
13 nM | Cc1ccc(-c2ccn(C)c2)c(C(=O)N2CCC[C@@H](C)[C@H]2CNc2ccc(C(F)(F)F)cn2)c1 [Example A6, ((2S,3R)-3-Methyl-2-(((5-(trifluoromethyl)pyridin-2-yl)amino)methyl)piperidin-1-yl)(5-methyl-2-(1-methyl-1H-pyrrol-3-yl)phenyl)methanone]
58 nM | Cc1ccc(-c2cnccc2C)c(C(=O)N2CCC[C@@H](C)[C@H]2CNc2ccc(C(F)(F)F)cn2)c1 [Example A8, ((2S,3R)-3-Methyl-2-(((5-(trifluoromethyl)pyridin-2-yl)amino)methyl)piperidin-1-yl)(5-methyl-2-(4-methylpyridin-3-yl)phenyl)methanone]

Target: T2, CYP3A4 (Homo sapiens, UniProt P08684)
T2 construct: pre-incubated with human liver microsomes and NADPH; from tissue; host or cells: human liver microsomes
Experiment: Cytochrome P450 inhibition assay (midazolam hydroxylation)
Type: in vitro ADME
Conditions: human, human liver microsomes, probe midazolam (hydroxylation to 1′-hydroxymidazolam), 10 μM test compound, midazolam at approximately its Km
Summary of the method: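 Human liver microsomes; CYP3A4 activity as midazolam 1′-hydroxylation with substrate near Km, with or without 10 μM test compound, read as percent inhibition. For time-dependent inhibition, parallel samples were preincubated 30 min with NADPH before substrate, and percent inhibition compared with non-preincubated samples.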

T2 sequence (P08684 whole entry): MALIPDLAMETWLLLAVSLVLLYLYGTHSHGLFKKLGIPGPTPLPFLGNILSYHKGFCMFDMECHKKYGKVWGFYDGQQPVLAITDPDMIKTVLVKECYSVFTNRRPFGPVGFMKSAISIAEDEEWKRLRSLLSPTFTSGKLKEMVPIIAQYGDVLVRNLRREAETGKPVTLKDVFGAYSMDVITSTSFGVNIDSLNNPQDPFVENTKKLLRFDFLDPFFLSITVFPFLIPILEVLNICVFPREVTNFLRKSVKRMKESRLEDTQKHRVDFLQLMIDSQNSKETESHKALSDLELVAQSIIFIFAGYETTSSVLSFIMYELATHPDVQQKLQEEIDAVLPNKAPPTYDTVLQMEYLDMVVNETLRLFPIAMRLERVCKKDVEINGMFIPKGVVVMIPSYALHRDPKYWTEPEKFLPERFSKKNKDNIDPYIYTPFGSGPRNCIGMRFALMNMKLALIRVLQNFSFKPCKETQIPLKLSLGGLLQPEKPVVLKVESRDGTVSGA

SMILES | inhibition at 10 µM
Cc1ccc(-c2cnn(C)c2)c(C(=O)N2CCC[C@@H](C)[C@H]2CNc2nc3ccccc3o2)c1 [Example A2, ((2S,3R)-2-((Benzo[d]oxazol-2-ylamino)methyl)-3-methylpiperidin-1-yl)(5-methyl-2-(1-methyl-1H-pyrazol-4-yl)phenyl)methanone] | 93%
Cc1ccc(-c2cn[nH]c2)c(C(=O)N2CCC[C@@H](C)[C@H]2CNc2ccc(C(F)(F)F)cn2)c1 [Example A3, ((2S,3R)-3-Methyl-2-(((5-(trifluoromethyl)pyridin-2-yl)amino)methyl)piperidin-1-yl)(5-methyl-2-(1H-pyrazol-4-yl)phenyl)methanone] | 98%
Cc1cncc(-c2ccc(C)cc2C(=O)N2CCC[C@@H](C)[C@H]2CNc2ccc(C(F)(F)F)cn2)c1 [Example A5, ((2S,3R)-3-Methyl-2-(((5-(trifluoromethyl)pyridin-2-yl)amino)methyl)piperidin-1-yl)(5-methyl-2-(5-methylpyridin-3-yl)phenyl)methanone] | 98%
Cc1ccc(-c2ccn(C)c2)c(C(=O)N2CCC[C@@H](C)[C@H]2CNc2ccc(C(F)(F)F)cn2)c1 [Example A6, ((2S,3R)-3-Methyl-2-(((5-(trifluoromethyl)pyridin-2-yl)amino)methyl)piperidin-1-yl)(5-methyl-2-(1-methyl-1H-pyrrol-3-yl)phenyl)methanone] | 85%
Cc1ccc(-c2cnccc2C)c(C(=O)N2CCC[C@@H](C)[C@H]2CNc2ccc(C(F)(F)F)cn2)c1 [Example A8, ((2S,3R)-3-Methyl-2-(((5-(trifluoromethyl)pyridin-2-yl)amino)methyl)piperidin-1-yl)(5-methyl-2-(4-methylpyridin-3-yl)phenyl)methanone] | 99%
Cc1ccc(-c2cccnn2)c(C(=O)N2CCC[C@@H](C)[C@H]2CNc2ncc(C(F)(F)F)cn2)c1 [Example A198, ((2S,3R)-3-Methyl-2-(((5-(trifluoromethyl)pyrimidin-2-yl)amino)methyl)piperidin-1-yl)(5-methyl-2-(pyridazin-3-yl)phenyl)methanone] | 51%
C[C@@H]1CCCN(C(=O)c2cc(F)ccc2-n2nccn2)[C@@H]1CNc1ncc(C(F)(F)F)cn1 [Example A207, (5-Fluoro-2-(2H-1,2,3-triazol-2-yl)phenyl)((2S,3R)-3-methyl-2-(((5-(trifluoromethyl)pyrimidin-2-yl)amino)methyl)piperidin-1-yl)methanone] | 44%
Cc1ccc(-n2nccn2)c(C(=O)N2CCC(F)(F)C[C@H]2CNc2ccc(Cl)cn2)c1 [Example A210, (S)-(2-(((5-Chloropyridin-2-yl)amino)methyl)-4,4-difluoropiperidin-1-yl)(5-methyl-2-(2H-1,2,3-triazol-2-yl)phenyl)methanone] | 76%
Cc1ccc(-n2nccn2)c(C(=O)N2CCC(F)(F)C[C@H]2CNc2ncc(C(F)(F)F)cn2)c1 [Example A211, (S)-(4,4-Difluoro-2-(((5-(trifluoromethyl)pyrimidin-2-yl)amino)methyl)piperidin-1-yl)(5-methyl-2-(2H-1,2,3-triazol-2-yl)phenyl)methanone] | 60%
Cc1ccc(-n2nccn2)c(C(=O)N2CCC[C@@H](C)[C@H]2CNc2cc(C)nc3nc(C)nn23)c1 [Example A213, ((2S,3R)-2-(((2,5-Dimethyl-[1,2,4]triazolo[1,5-a]pyrimidin-7-yl)amino)methyl)-3-methylpiperidin-1-yl)(5-methyl-2-(2H-1,2,3-triazol-2-yl)phenyl)methanone] | 19%
Cc1ccc(-n2nccn2)c(C(=O)N2CCC[C@@H](C)[C@H]2CNc2ncc3c(C)cccc3n2)c1 [Example A214, ((2S,3R)-3-Methyl-2-(((5-methylquinazolin-2-yl)amino)methyl)piperidin-1-yl)(5-methyl-2-(2H-1,2,3-triazol-2-yl)phenyl)methanone] | 69%
Cc1ccc(-n2nccn2)c(C(=O)N2CCC[C@@H](C)[C@H]2CNc2ncc3ccc(C)cc3n2)c1 [Example A215, ((2S,3R)-3-Methyl-2-(((7-methylquinazolin-2-yl)amino)methyl)piperidin-1-yl)(5-methyl-2-(2H-1,2,3-triazol-2-yl)phenyl)methanone] | 67%

Further lines, results first:

inhibition at 10 µM | SMILES
67% | Cc1ccc(-n2nccn2)c(C(=O)N2CCC[C@@H](C)[C@H]2CNc2ncc3ccccc3n2)c1 [Example A216, ((2S,3R)-3-Methyl-2-((quinazolin-2-ylamino)methyl)piperidin-1-yl)(5-methyl-2-(2H-1,2,3-triazol-2-yl)phenyl)methanone]
60% | C[C@@H]1CCCN(C(=O)c2cc(F)ccc2-c2ncccn2)[C@@H]1CNc1ncc(Cl)cn1 [Example A226, ((2S,3R)-2-(((5-Chloropyrimidin-2-yl)amino)methyl)-3-methylpiperidin-1-yl)(5-fluoro-2-(pyrimidin-2-yl)phenyl) methanone]
42% | C[C@@H]1CCCN(C(=O)c2c(F)cccc2-c2ncccn2)[C@@H]1CNc1ncc(C(F)(F)F)cn1 [Example A240, (2-Fluoro-6-(pyrimidin-2-yl)phenyl)((2S,3R)-3-methyl-2-(((5-(trifluoromethyl)pyrimidin-2-yl)amino)methyl)piperidin-1-yl)methanone]
62% | C[C@@H]1CCCN(C(=O)c2c(F)cccc2-c2ncccn2)[C@@H]1CNc1ccc(C(F)(F)F)cn1 [Example A241, (2-Fluoro-6-(pyrimidin-2-yl)phenyl)((2S,3R)-3-methyl-2-(((5-(trifluoromethyl)pyridin-2-yl)amino)methyl)piperidin-1-yl)methanone]
69% | C[C@@H]1CCCN(C(=O)c2cc(F)c(F)cc2-n2nccn2)[C@@H]1CNc1ccc(Cl)cn1 [Example A246, ((2S,3R)-2-(((5-Chloropyridin-2-yl)amino)methyl)-3-methylpiperidin-1-yl)(4,5-difluoro-2-(2H-1,2,3-triazol-2-yl)phenyl)methanone]
52% | C[C@@H]1CCCN(C(=O)c2cccc(F)c2-n2nccn2)[C@@H]1CNc1ncc(C(F)(F)F)cn1 [Example A256, (3-Fluoro-2-(2H-1,2,3-triazol-2-yl)phenyl)((2S,3R)-3-methyl-2-(((5-(trifluoromethyl)pyrimidin-2-yl)amino)methyl)piperidin-1-yl)methanone]
76% | Cc1cccc(C(=O)N2CCC[C@@H](C)[C@H]2CNc2ccc(C(F)(F)F)cn2)c1-n1nccn1 [Example A266, ((2S,3R)-3-Methyl-2-(((5-(trifluoromethyl)pyridin-2-yl)amino)methyl)piperidin-1-yl)(3-methyl-2-(2H-1,2,3-triazol-2-yl)phenyl)methanone]
65% | Cc1cccc(C(=O)N2CCC[C@@H](C)[C@H]2CNc2ncc(C(F)(F)F)cn2)c1-n1nccn1 [Example A267, ((2S,3R)-3-Methyl-2-(((5-(trifluoromethyl)pyrimidin-2-yl)amino)methyl)piperidin-1-yl)(3-methyl-2-(2H-1,2,3-triazol-2-yl)phenyl)methanone]
60% | Cc1cccc(C(=O)N2CCC[C@@H](C)[C@H]2CNc2ncc(Cl)cn2)c1-n1nccn1 [Example A268, ((2S,3R)-2-(((5-Chloropyrimidin-2-yl)amino)methyl)-3-methylpiperidin-1-yl)(3-methyl-2-(2H-1,2,3-triazol-2-yl)phenyl)methanone]
51% | Cc1cccc(C(=O)N2CCC[C@@H](C)[C@H]2CNc2ncc(C(F)(F)F)cn2)c1-c1ncccn1 [Example A299, ((2S,3R)-3-Methyl-2-(((5-(trifluoromethyl)pyrimidin-2-yl)amino)methyl)piperidin-1-yl)(3-methyl-2-(pyrimidin-2-yl)phenyl)methanone]
40% | Cc1ccc(-c2ncccn2)c(C(=O)N2CCC(F)(F)C[C@H]2CNc2ncc(C(F)(F)F)cn2)c1 [Example A312, (S)-(4,4-Difluoro-2-(((5-(trifluoromethyl)pyrimidin-2-yl)amino)methyl)piperidin-1-yl)(5-methyl-2-(pyrimidin-2-yl)phenyl)methanone]
83% | Cc1cc(C(=O)N2CCC[C@@H](C)[C@H]2CNc2ccc(C(F)(F)F)cn2)c(-n2nccn2)cc1F [Example A368, (4-Fluoro-5-methyl-2-(2H-1,2,3-triazol-2-yl)phenyl)((2S,3R)-3-methyl-2-(((5-(trifluoromethyl)pyridin-2-yl)amino)methyl)piperidin-1-yl)methanone]
76% | Cc1cc(F)c(-c2ncccn2)c(C(=O)N2CCC[C@@H](C)[C@H]2CNc2ccc(C(F)(F)F)cn2)c1 [Example A374, (3-fluoro-5-methyl-2-(pyrimidin-2-yl)phenyl)((2S,3R)-3-methyl-2-(((5-(trifluoromethyl)pyridin-2-yl)amino)methyl)piperidin-1-yl)methanone]
